Source: patent US11160770B2, “Compounds, compositions and methods for treating oxidative DNA damage disorders” (Indiana University Research and Technology Corporation, priority 2011, dated 2021)

Experiments:
sensory neurons = experiment: Capsaicin-evoked iCGRP release from sensory neurons after ionizing radiation; assay type: cell-based, rat
Experimental: EXAMPLE. Cell Cultures. Neuronal cultures were prepared from adult male (150-175 g) Sprague-Dawley rats (Harlan, Indianapolis, Ind.) as described in the published literature. Briefly, hippocampal cells were dissociated using papain and mechanical agitation and separated by gradient centrifugation. The pellet of cells from a discontinuous gradient of Optiprep in L-15 media was washed then resuspended in 1 mL of growth media consisting of Neurobasal Medium supplemented with 0.5 mM L-glutamine, 2% B-27 Supplement minus AO, 50 mg/mL Penicillin-Streptomycin, and 5 ng/mL of Basic Fibroblast Growth Factor (BFGF). Approximately 60,000 cells were plated onto poly-D-lysine and laminin coated plates and grown for 6-14 days in 5% CO2 at 37° C. Growth medium was changed every other day. For sensory neuronal culture, cells were dissociated using collagenase and mechanical dissociation. Approximately 30,000 DRG cells were plated into each well of 12 well culture plates or onto Lab-Tek chamber slides all precoated with poly-D-lysine and laminin. […]
For release studies, the sensory neuronal cultures were washed once with HEPES buffer consisting of (in mM) 25 HEPES, 135 NaCl, 3.5 KCl, 2.5 CaCl2, 1 MgCl2, 3.3 D-glucose, and 0.1% bovine serum albumin, pH 7.4 and maintained at 37° C. […] After each incubation, the buffer was removed and the amount of CGRP in each sample was measured using radioimmunoassay as previously described. […] Total content was calculated by adding the total amount released in all incubations to the amount measured in the cells. The release data is calculated as fmol released/well/[…] or as a % of the total peptide content in the cells. […]
EXAMPLE. […] For these studies, the initially determined effects of exposing neuronal cultures to single or multiple doses of 10 Gy of IR on the content and release of iCGRP. 24 h after exposing sensory neurons to either one or two once-daily doses of 10 Gy, there was no significant effect on resting or capsaicin-evoked iCGRP release (as measured in fmol released/well of cells/10 min) or on the total content of CGRP in the cultures. […]

[1] = system: cisplatin treated neuronal cells; experiment: Trypan blue cell survival following cisplatin treatment; assay type: cell-based, rat; details: E3330 20 μM; cisplatin 0-100 mM; trypan blue on days 11, 12, 13
From the text: EXAMPLE. Assay Methods. Sensory neuronal cultures grown on Lab-Tek microscope chamber slides were processed for immunofluorescence as previously published using a peripherin antibody (1:500) and HA antibody (1:500)[28]. Images were collected in red (peripherin), green (HA), and bright-field modes. A Zeiss LSM offline browser (R4.0: Carl Zeiss Inc.; Thornwood, N.Y.) was used to determine co-localization of peripherin and HA. For trypan blue exculsion, equal volume of 0.4% (w/v) Trypan blue to cell suspension were combined, mixed and scored under phase contrast microscope. Dead cells were those that take up the trypan blue and stain blue, whereas the live cells have yellow nuclei.
Referring to FIG. 2, cells were harvested on day 1. The corresponding siRNA (100 nM) was added on day 3, and removed on day 5. E3330 (20 μM) was dosed on day 7 and remained in the cultures for 2 days. E3330 (20 μM) and/or cisplatin ([…]) are each dosed day 10 with fresh media. Trypan blue assay is performed on days 11, 12, and 13. CGRP release assay is performed on day 11. N=3, *p<0.05.

DRG cells = experiment: FACS apoptosis assay in cisplatin treated DRG cells; assay type: cell-based; details: cisplatin 50 μM, E3330 50 μM co-treatment, 3 days
Experimental: EXAMPLE. DRG cells are treated with cisplatin (50 μM), with and without co-treatment with E3330 (50 μM), for 3 days. The cells are evaluated by FACS assay and compared to control.

CCCCCCCCC/C(=C\C1=C(C)C(=O)C(OC)=C(OC)C1=O)C(=O)O [Example 28]
capsaicin-evoked iCGRP release after radiation (sensory neurons; 10 μM or 20 μM E3330, 3 doses of 10 Gy, 30 nM capsaicin, 24 h after last dose): completely blocked the effects of radiation on peptide release | capsaicin-evoked iCGRP release in control cells (sensory neurons; 10 μM or 20 μM E3330, no radiation, 30 nM capsaicin): did not alter capsaicin-evoked release in control cells | evoked release of iCGRP (sensory neurons; 20 μM E3330, APE1 knock-down and 266-177 overexpression, 10 Gy per day for three days): 5.9±0.5 % of total content | cell death in cisplatin treated neuronal cells [1]: attenuate cell death | apoptosis arising from cisplatin treatment (DRG cells): decrease apoptosis
